Measured values: a compilation of properties of binary mixtures (doi:10.1016/j.molliq.2014.07.031)

Assay: xn = mol fraction of the nth substance listed
Conditions: 101 kPa

CCCCCC[n+]1ccn(C)c1.[I-] + [I-].[Li+]
electrical conductivity (288.1 K, x1 = 0.32): 0.0025 S/m | electrical conductivity (288.1 K, x1 = 0.59): 0.0002 S/m | electrical conductivity (293 K, x1 = 0.32): 0.0046 S/m | electrical conductivity (293 K, x1 = 0.59): 0.0005 S/m | viscosity (293 K, x1 = 1): 2633 mPa·s | electrical conductivity (298.1 K, x1 = 0.32): 0.0086 S/m | viscosity (298.1 K, x1 = 1): 1742 mPa·s | electrical conductivity (303 K, x1 = 0.32): 0.011 S/m | electrical conductivity (303 K, x1 = 0.59): 0.0019 S/m | viscosity (303 K, x1 = 0.59): 7760 mPa·s | electrical conductivity (308.1 K, x1 = 0.32): 0.0189 S/m | viscosity (308.1 K, x1 = 1): 802 mPa·s | electrical conductivity (313 K, x1 = 0.32): 0.032 S/m | electrical conductivity (313 K, x1 = 0.59): 0.0054 S/m | viscosity (313 K, x1 = 0.59): 2420 mPa·s | viscosity (313 K, x1 = 1): 564 mPa·s | electrical conductivity (318.1 K, x1 = 0.32): 0.0536 S/m | electrical conductivity (318.1 K, x1 = 0.59): 0.0086 S/m | viscosity (318.1 K, x1 = 0.59): 1470 mPa·s | viscosity (318.1 K, x1 = 1): 405 mPa·s | electrical conductivity (323 K, x1 = 0.32): 0.0894 S/m | electrical conductivity (323 K, x1 = 0.59): 0.0133 S/m | viscosity (323 K, x1 = 0.59): 989 mPa·s | viscosity (323 K, x1 = 1): 279 mPa·s | electrical conductivity (328.1 K, x1 = 0.32): 0.145 S/m | electrical conductivity (328.1 K, x1 = 0.59): 0.0206 S/m | viscosity (328.1 K, x1 = 0.59): 682 mPa·s | electrical conductivity (333 K, x1 = 0.59): 0.0301 S/m | viscosity (333 K, x1 = 0.59): 491 mPa·s | viscosity (333 K, x1 = 1): 164 mPa·s | electrical conductivity (338.1 K, x1 = 0.59): 0.0428 S/m | viscosity (338.1 K, x1 = 0.59): 359 mPa·s | viscosity (338.1 K, x1 = 1): 123.6 mPa·s | electrical conductivity (343 K, x1 = 0.32): 0.504 S/m | viscosity (343 K, x1 = 0.32): 380 mPa·s | electrical conductivity (343 K, x1 = 0.59): 0.0601 S/m | viscosity (343 K, x1 = 0.59): 272 mPa·s | viscosity (343 K, x1 = 1): 100.4 mPa·s | electrical conductivity (348.1 K, x1 = 0.59): 0.082 S/m | viscosity (348.1 K, x1 = 0.59): 219 mPa·s | viscosity (348.1 K, x1 = 1): 79.9 mPa·s | electrical conductivity (353 K, x1 = 0.32): 0.842 S/m | viscosity (353 K, x1 = 0.32): 225 mPa·s | electrical conductivity (353 K, x1 = 0.59): 0.109 S/m | viscosity (353 K, x1 = 0.59): 179 mPa·s | viscosity (353 K, x1 = 1): 64.6 mPa·s | electrical conductivity (358.1 K, x1 = 0.32): 1.04 S/m | viscosity (358.1 K, x1 = 0.32): 177 mPa·s | electrical conductivity (358.1 K, x1 = 0.59): 0.142 S/m | viscosity (358.1 K, x1 = 0.59): 144.7 mPa·s | viscosity (358.1 K, x1 = 1): 52.1 mPa·s | electrical conductivity (363 K, x1 = 0.32): 1.27 S/m | viscosity (363 K, x1 = 0.32): 144.7 mPa·s | electrical conductivity (363 K, x1 = 0.59): 0.182 S/m | viscosity (363 K, x1 = 0.59): 119.9 mPa·s | viscosity (363 K, x1 = 1): 42 mPa·s | electrical conductivity (368.1 K, x1 = 0.32): 1.61 S/m | viscosity (368.1 K, x1 = 0.32): 124.1 mPa·s | electrical conductivity (368.1 K, x1 = 0.59): 0.232 S/m | viscosity (368.1 K, x1 = 0.59): 101.5 mPa·s | electrical conductivity (373 K, x1 = 0.59): 0.287 S/m
